Patent US20050004186A1, “MEK inhibiting compounds” (Pfizer Inc, priority 2002, published 2005)
pIC50: −log10 of the molar value. “And” between values parts separate entries of the source, which are not always exact repeats. Equal values may be shown once. One block for each molecule: values may come before it.

System: MEK
Assay: Cellular assay for measuring MEK inhibition, C26CPA1 (inhibition of ERK phosphorylation in C26 cells)
Format: cell-based, murine
Conditions: for C26CPA1 % Inhibition @ 0.1 μM / C26CPA1 % Inhibition @ 1 μM: C26 cells; for pIC50: murine colon 26 (C26) carcinoma cells, one hour at 37 C
Procedure: Cellular Assay for Measuring MEK Inhibition
MEK inhibitors were evaluated by determining their ability to inhibit phosphorylation of MAP kinase (ERK) in murine colon 26 (C26) carcinoma cells. Since ERK1 and ERK2 represent the only known substrates for MEK1 and MEK2, the measurement of inhibition of ERK phosphorylation in cells provides direct read out of cellular MEK inhibition by the compounds of the invention. Detection of phosphorylation of ERK was carried out either by Western blot or ELISA format. Briefly, the assays involve treatment of exponentially growing C26 cells with varying concentrations of the test compound (or vehicle control) for one hour at 37≡ C. For Western blot assay, cells were rinsed free of compound/vehicle and lysed in a solution containing 70 mM NaCl, 50 mM glycerol phosphate, 10 mM HEPES, […], 1% Triton X-100, 1 mM Na3VO4, 100 μM PMSF, 10 μM leupeptin and 10 μM pepstatin. Supernatants were then subjected to gel electrophoresis and hybridized to a primary antibody recognizing dually phosphorylated ERK1 and ERK2. To evaluate total MAPK levels, blots were subsequently ‘stripped’ and re-probed with a 1:1 mixture of polyclonal antibodies recognizing unphosphorylated ERK1 and ERK2. For pERK ELISA assay, pERK TiterZyme Enzyme immunometric Assay kits were acquired from Assay Designs, Inc (Ann Arbor, Mich.). Briefly, cells were harvested in lysis solution containing 50 mM β-glycerophosphate, 10 mM HEPES, pH7.4, 70 mM NaCl, 2 mM EDTA and 1% SDS and protein lysates were diluted 1:15 with supplied Assay buffer prior to the execution of the assay. The subsequent steps were carried out essentially as recommended by the manufacturer.

SMILES: Fc1cc(I)ccc1Nc1c(-c2nnc(NC3CC4CCC3C4)o2)ccc(F)c1F (stereo not drawn) [Example 51, Bicyclo[2,2,1]hept-2-yl-{5-[3,4-difluoro-2-(2-fluoro-4-iodo-phenylamino)-phenyl]-[1,3,4]oxadiazol-2-yl}-amine]
C26CPA1 % Inhibition @ 0.1 μM: 13.1%
C26CPA1 % Inhibition @ 1 μM: 96%

pIC50: 7.07
SMILES: Cn1cccc1CCNc1nnc(-c2ccc(F)c(F)c2Nc2ccc(I)cc2F)o1 [Example 52, {5-[3,4-Difluoro-2-(2-fluoro-4-iodo-phenylamino)-phenyl]-[1,3,4]oxadiazol-2-yl}-[2-(1-methyl-1H-pyrrol-2-yl)-ethyl]-amine]

pIC50: 6.64
SMILES: Cn1cnc(CCNc2nnc(-c3ccc(F)c(F)c3Nc3ccc(I)cc3F)o2)c1 [Example 53, {5-[3,4-Difluoro-2-(2-fluoro-4-iodo-phenylamino)-phenyl]-[1,3,4]oxadiazol-2-yl}-[2-(1-methyl-1H-imidazol-4-yl)-ethyl]-amine]

SMILES: Fc1cc(I)ccc1Nc1c(-c2nnc(N3CCCC3CN3CCCC3)o2)ccc(F)c1F (stereo not drawn) [Example 54, {2,3-Difluoro-6-[5-(2-pyrrolidin-1-ylmethyl-pyrrolidin-1-yl)-[1,3,4]oxadiazol-2-yl]-phenyl}-(2-fluoro-4-iodo-phenyl)-amine]
C26CPA1 % Inhibition @ 0.1 μM: 21.7%
C26CPA1 % Inhibition @ 1 μM: 30.8%

SMILES: COCC(C)Nc1nnc(-c2ccc(F)c(F)c2Nc2ccc(I)cc2F)o1 (stereo not drawn) [Example 55, {5-[3,4-Difluoro-2-(2-fluoro-4-iodo-phenylamino)-phenyl]-[1,3,4]oxadiazol-2-yl}-(2-methoxy-1-methyl-ethyl)-amine]
C26CPA1 % Inhibition @ 0.1 μM: 23.9%
C26CPA1 % Inhibition @ 1 μM: 25.2%

pIC50: 7.36
SMILES: CCOCCCNc1nnc(-c2ccc(F)c(F)c2Nc2ccc(I)cc2F)o1 [Example 56, {5-[3,4-Difluoro-2-(2-fluoro-4-iodo-phenylamino)-phenyl]-[1,3,4]oxadiazol-2-yl}-(3-ethoxy-propyl)-amine]

SMILES: O=C1OCCC1Nc1nnc(-c2ccc(F)c(F)c2Nc2ccc(I)cc2F)o1 (stereo not drawn) [Example 57, 3-{5-[3,4-Difluoro-2-(2-fluoro-4-iodo-phenylamino)-phenyl]-[1,3,4]oxadiazol-2-ylamino}-dihydro-furan-2-one]
C26CPA1 % Inhibition @ 0.1 μM: 31.3%
C26CPA1 % Inhibition @ 1 μM: 51.8%

SMILES: CCOC(=O)CCNc1nnc(-c2ccc(F)c(F)c2Nc2ccc(I)cc2F)o1 [Example 58, 3-{5-[3,4-Difluoro-2-(2-fluoro-4-iodo-phenylamino)-phenyl]-[1,3,4]oxadiazol-2-ylamino}-propionic Acid Ethyl Ester]
C26CPA1 % Inhibition @ 0.1 μM: 0%
C26CPA1 % Inhibition @ 1 μM: 17.8%

SMILES: Cc1cccc(C)c1OCC(C)Nc1nnc(-c2ccc(F)c(F)c2Nc2ccc(I)cc2F)o1 (stereo not drawn) [Example 59, {5-[3,4-Difluoro-2-(2-fluoro-4-iodo-phenylamino)-phenyl]-[1,3,4]oxadiazol-2-yl}-[2-(2,6-dimethyl-phenoxy)-1-methyl-ethyl]-amine]
C26CPA1 % Inhibition @ 0.1 μM: 0%
C26CPA1 % Inhibition @ 1 μM: 0%

SMILES: CCN(CC)C1CCN(c2nnc(-c3ccc(F)c(F)c3Nc3ccc(I)cc3F)o2)C1 (stereo not drawn) [Example 60, (1-{5-[3,4-Difluoro-2-(2-fluoro-4-iodo-phenylamino)-phenyl]-[1,3,4]oxadiazol-2-yl}-pyrrolidin-3-yl)-diethyl-amine]
C26CPA1 % Inhibition @ 0.1 μM: 8.2%
C26CPA1 % Inhibition @ 1 μM: 68%

pIC50: 6.07
SMILES: CN1CCCN(c2nnc(-c3ccc(F)c(F)c3Nc3ccc(I)cc3F)o2)CC1 [Example 61, {2,3-Difluoro-6-[5-(4-methyl-[1,4]diazepan-1-yl)-[1,3,4]oxadiazol-2-yl]-phenyl}-(2-fluoro-4-iodo-phenyl)-amine]

SMILES: CN1CCCC1CCNc1nnc(-c2ccc(F)c(F)c2Nc2ccc(I)cc2F)o1 (stereo not drawn) [Example 62, {5-[3,4-Difluoro-2-(2-fluoro-4-iodo-phenylamino)-phenyl]-[1,3,4]oxadiazol-2-yl}-[2-(1-methyl-pyrrolidin-2-yl)-ethyl]-amine]
C26CPA1 % Inhibition @ 0.1 μM: 53.7%
C26CPA1 % Inhibition @ 1 μM: 98.5%

pIC50: 7.64
SMILES: Fc1cc(I)ccc1Nc1c(-c2nnc(NCCCCN3CCCC3)o2)ccc(F)c1F [Example 63, {5-[3,4-Difluoro-2-(2-fluoro-4-iodo-phenylamino)-phenyl]-[1,3,4]oxadiazol-2-yl}-(4-pyrrolidin-1-yl-butyl)-amine]

SMILES: CCN(CC)CCCC(C)Nc1nnc(-c2ccc(F)c(F)c2Nc2ccc(I)cc2F)o1 (stereo not drawn) [Example 64, N*4*-{5-[3,4-Difluoro-2-(2-fluoro-4-iodo-phenylamino)-phenyl]-[1,3,4]oxadiazol-2-yl}-N*1* ,N*1*-diethyl-pentane-1,4-diamine]
C26CPA1 % Inhibition @ 0.1 μM: 0%
C26CPA1 % Inhibition @ 1 μM: 18.2%

SMILES: Fc1cc(I)ccc1Nc1c(-c2nnc(NCC3CCCO3)o2)ccc(F)c1F (stereo not drawn) [Example 65, {5-[3,4-Difluoro-2-(2-fluoro-4-iodo-phenylamino)-phenyl]-[1,3,4]oxadiazol-2-yl}-(tetrahydro-furan-2-ylmethyl)-amine]
C26CPA1 % Inhibition @ 0.1 μM: 0%
C26CPA1 % Inhibition @ 1 μM: 12.7%

SMILES: COCCN(CCOC)c1nnc(-c2ccc(F)c(F)c2Nc2ccc(I)cc2F)o1 [Example 66, {5-[3,4-Difluoro-2-(2-fluoro-4-iodo-phenylamino)-phenyl]-[1,3,4]oxadiazol-2-yl}-bis-(2-methoxy-ethyl)-amine]
C26CPA1 % Inhibition @ 0.1 μM: 0%
C26CPA1 % Inhibition @ 1 μM: 12.5%

SMILES: CCc1ccc(Nc2c(-c3nnc(N4CCCC4)o3)ccc(F)c2F)c(F)c1 [Example 75, [2,3-Difluoro-6-(5-pyrrolidin-1-yl-1,3,4-oxadiazol-2-yl)-phenyl]-(4-ethyl-2-fluoro-phenyl)-amine]
C26CPA1 % Inhibition @ 1 μM: 39.1% and 30.6%

SMILES: C=CCN(CC=C)c1nnc(-c2ccc(F)c(F)c2Nc2ccc(CC)cc2F)o1 [Example 83, Diallyl-{5-[2-(4-ethyl-2-fluoro-phenylamino)-3,4-difluoro-phenyl]-1,3,4-oxadiazol-2-yl}-amine]
C26CPA1 % Inhibition @ 0.1 μM: 65.6%
C26CPA1 % Inhibition @ 1 μM: 77.9%

SMILES: CCc1ccc(Nc2c(-c3nnc(N(C)CCCN(C)C)o3)ccc(F)c2F)c(F)c1 [Example 93, N^1-{5-[2-(4-Ethyl-2-fluoro-phenylamino)-3,4-difluoro-phenyl]-1,3,4-oxadiazol-2-yl}-N1,N>3,N>3-trimethyl-propane-1.3-diamine]
C26CPA1 % Inhibition @ 0.1 μM: 0%
C26CPA1 % Inhibition @ 1 μM: 31.9%

SMILES: CCc1ccc(Nc2c(-c3nnc(N(CCCN(C)C)CCCN(C)C)o3)ccc(F)c2F)c(F)c1 [Example 96, N^1-(3-Dimethylamino-propyl)-N^1-{5-[2-(4-ethyl-2-fluoro-phenylamino)-3,4-difluoro-phenyl]-1,3,4-oxadiazol-2-yl}-N>3,N>3-dimethyl-propane-1,3-diamine]
C26CPA1 % Inhibition @ 0.1 μM: 54%
C26CPA1 % Inhibition @ 1 μM: 55%

SMILES: CCCN(CC1CC1)c1nnc(-c2ccc(F)c(F)c2Nc2ccc(CC)cc2F)o1 [Example 100, Cyclopropylmethyl-{5-[2-(4-ethyl-2-fluoro-phenylamino)-3,4-difluoro-phenyl]-1,3,4-oxadiazol-2-yl}-propyl-amine]
C26CPA1 % Inhibition @ 0.1 μM: 37.1%
C26CPA1 % Inhibition @ 1 μM: 40.5%

SMILES: CCc1ccc(Nc2c(-c3nnc(N4CCN(CC)CC4)o3)ccc(F)c2F)c(F)c1 [Example 101, (4-Ethyl-2-fluoro-phenyl)-{6-[5-(4-ethyl-piperazin-1-yl)-1,3,4-oxadiazol-2-yl]-2,3-difluoro-phenyl}-amine]
C26CPA1 % Inhibition @ 0.1 μM: 41.2%
C26CPA1 % Inhibition @ 1 μM: 47.1%

SMILES: CCc1ccc(Nc2c(-c3nnc(N(C)C4CCN(C)C4)o3)ccc(F)c2F)c(F)c1 (stereo not drawn) [Example 102, {5-[2-(4-Ethyl-2-fluoro-phenylamino)-3,4-difluoro-phenyl]-1,3,4-oxadiazol-2-yl}-methyl-(1-methyl-pyrrolidin-3-yl)-amine]
C26CPA1 % Inhibition @ 0.1 μM: 42.4%
C26CPA1 % Inhibition @ 1 μM: 54.6%

SMILES: CCc1ccc(Nc2c(-c3nnc(N4CCN(C)CC4)o3)ccc(F)c2F)c(F)c1 [Example 112, {2,3-Difluoro-6-[5-(4-methyl-piperazin-1-yl)-1,3,4-oxadiazol-2-yl]-phenyl}-(4-ethyl-2-fluoro-phenyl)-amine]
C26CPA1 % Inhibition @ 0.1 μM: 62.6%
C26CPA1 % Inhibition @ 1 μM: 84%

SMILES: CCc1ccc(Nc2c(-c3nnc(NCCc4cccs4)o3)ccc(F)c2F)c(F)c1 [Example 114, {5-[2-(4-Ethyl-2-fluoro-phenylamino)-3,4-difluoro-phenyl]-1,3,4-oxadiazol-2-yl}-(2-thiophen-2-yl-ethyl)-amine]
C26CPA1 % Inhibition @ 0.1 μM: 35.4%
C26CPA1 % Inhibition @ 1 μM: 46.3%

SMILES: CCc1ccc(Nc2c(-c3nnc(N(C)CCS(C)(=O)=O)o3)ccc(F)c2F)c(F)c1 [Example 121, {5-[2-(4-Ethyl-2-fluoro-phenylamino)-3,4-difluoro-phenyl]-1,3,4-oxadiazol-2-yl}-(2-methanesulfonyl-ethyl)-methyl-amine]
C26CPA1 % Inhibition @ 0.1 μM: 0%
C26CPA1 % Inhibition @ 1 μM: 26.9%

SMILES: CCc1ccc(Nc2c(-c3nnc(N4CCN(Cc5ccccn5)CC4)o3)ccc(F)c2F)c(F)c1 [Example 123, {2,3-Difluoro-6-[5-(4-pyridin-2-ylmethyl-piperazin-1-yl)-1,3,4-oxadiazol-2-yl]-phenyl}-(4-ethyl-2-fluoro-phenyl)-amine]
C26CPA1 % Inhibition @ 0.1 μM: 0%
C26CPA1 % Inhibition @ 1 μM: 0%
